Experiments:
[1] = In vitro RRT study of teicoplanin in bovine blood, evaluated with the IDP model; type: in vitro ADME
Method: For all population pharmacokinetic modelling work in this study, NONMEM® (ICON development service, Gaithersburg, MD, version 7.4) was used. The inter-individual variability of the pharmacokinetic parameters was assumed to be log-normally distributed. For the intra-individual, residual variability an additive, proportional or combined error model was used. In the clinical data examples, models were evaluated by graphical and numerical criteria (goodness of fit plots, visual predictive checks and drop in objective function value (dOFV)). The LLP-SIR (log-likelihood-profiling based sampling-importance-resampling) method was employed for the assessment of parameter uncertainty, since a small number of subjects or cases was investigated.
An in vitro study investigating RRT of teicoplanin in bovine blood was evaluated using the IDP model. 51 pre-filter plasma samples and 45 post-filter plasma samples were included. 45 effluent samples were collected which were all below the lower limit of quantification (5 mg/L), which was considered in the analyses by comparison to simulations after estimation. A blood concentration of 25 mg/L using a volume of 2.2–2.5 L was studied. The blood flow rate was set to 250 mL/min and the dialysate flow rate to 500 mL/min without filtration. In five experiments, a polysulphone membrane (n = 3: FX80, Fresenius Medical Company, Austria, n = 2: F60 S, Fresenius Medical Company, Austria), and in one experiment a triacetate membrane (Ni 21 e, Surflux-21E, Nipro Corporation, Japan) was used. The IDP model was used to describe the RRT clearance and adsorption to the dialysis membranes was evaluated.

[2] = patients with normal serum albumin concentrations; cited from earlier work
From the text: Protein binding plays an important role when the RRT clearance is only estimated based on drug characteristics, since it is assumed that only unbound drug can be dialyzed or filtrated. The integrated model allows direct assessment of the RRT clearance without assumptions on the efficacy in dialysis and filtration processes based on the unbound fraction. Moreover, elimination processes, that are independent of dialysis and filtration, e.g. adsorption to the dialysis membrane, can be quantified. RRT clearance of highly protein bound drugs, e.g. teicoplanin presenting a protein binding of >90% in ...

[3] = cited from earlier work

Row | CLRRT ([1]; bovine blood, 25 mg/L, blood flow 250 mL/min, dialysate flow 500 mL/min, no filtration, IDP model) [mL/min] | FractionAdsorbed (fraction of the RRT clearance mediated via adsorption) ([1]; bovine blood, IDP model) | RRT clearance ([1]; bovine blood, IDP model, changing over time) [L/h] | Ads. capacity polysulfone FX80/F60S ([1]; polysulphone membranes, five experiments) [mg] | Adsorption capacity triacetate ([1]; triacetate membrane Ni 21 e, n = 1 experiment) [mg] | Compound | protein binding [2] [%] | degradation half-life in stabilizing conditions [3] [h]
1 | 76.5 | 0.891 | 4.59 | 31.2 | 8.6 | teicoplanin | > 90 | 
2 |  |  |  |  |  | C[C@@H](O)[C@H]1C(=O)N2C(C(=O)O)=C(S[C@@H]3CN[C@H](CNS(N)(=O)=O)C3)[C@H](C)[C@H]12 [Doripenem, doripenem] |  | > 100

Source: paper PMC7225193, “An Integrated Dialysis Pharmacometric (IDP) Model to Evaluate the Pharmacokinetics in Patients Undergoing Renal Replacement Therapy” (Pharmaceutical Research, 2020)
